{"source": "patent US11357806B2", "about": "“Method of isolating sphingolipids from cordyceps and their use” (Macau University of Science and Technology, priority 2015, dated 2022)", "key": {"[1]": {"system": "LPS-induced splenic lymphocytes", "assay": "LPS-induced primary splenocyte proliferation model (MTT, immunosuppressive activity assay)", "assay_type": "cell-based, ICR mice", "conditions": "Mus musculus, Splenic lymphocyte, LPS 2.5 mg/L, 48 h culture, read-out: IC50 (concentration that reduced cell proliferation by 50%)", "procedure": "(§1) Male ICR mice (Weight, 10 to 22 g) were provided by the Comparative Medicine Center of Yangzhou University. The animal studies were approved by the Animal Ethics Committee of China Pharmaceutical University. The animals were cared for according to the regulations of the Animal Committee.\n(§2) ICR mice were killed by cervical dislocation, and the spleens were removed aseptically. Mononuclear cell suspensions were prepared and re-suspended in RPMI 1640 medium (containing 10% FBS). The resulting splenic lymphocytes suspensions (4×10^6 cells/mL) were cultured in 96-well plate (100 μL suspensions each well). In the control group, 100 μL 10% FBS in RPMI1640 was added into each well (five replicates of wells). In the LPS or Con A model group, 100 μL LPS or Con A (2.5 mg/L of final concentration) was added into each well (five replicates of wells). For the positive drug treatment group, 50 μL of LPS or Con A (2.5 mg/L of final concentration) and 50 μL of FTY720 with a set of final concentrations (0.001, 0.003, 0.01, 0.03, 0.1, 0.3, 1, 3 and 10 μM) were added into each well. In the test group, 50 μL of LPS or Con A (2.5 mg/L of final concentration) and 50 μL of the four SPL fractions with a set of final concentrations were added into each well. […] Then the OD490 readings were taken with a microplate reader (Bio Tek, Tigan Street Winooski, Vt., USA). […]"}, "[2]": {"system": "Con A-induced splenic lymphocytes", "assay": "Con A-induced primary splenocyte proliferation model (MTT, immunosuppressive activity assay)", "assay_type": "cell-based, ICR mice", "conditions": "Mus musculus, Splenic lymphocyte, Con A 2.5 mg/L, 48 h culture, read-out: IC50 (concentration that reduced cell proliferation by 50%)", "procedure": "as §1, §2"}}, "note": "Like-named read-outs stand apart in the source and are kept apart here.", "data": [{"smiles": "CCCCCCCCc1ccc(CCC(N)(CO)CO)cc1", "note": "[FTY720]", "values": [{"measurement": "IC50", "setting": "[1]", "value": 0.15, "unit": "µg/mL"}, {"measurement": "IC50", "setting": "[1]; value in brackets", "value": 430, "unit": "nM"}, {"measurement": "IC50", "setting": "[2]", "value": 0.11, "unit": "µg/mL"}, {"measurement": "IC50", "setting": "[2]; value in brackets", "value": 310, "unit": "nM"}]}]}
